Measurements: PubChem BioAssay (NCI)
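How tested: cells in 96-well plates exposed to compound for 48 hours at five concentrations. GI50: concentration for 50% inhibition of growth. Definition used: TGI = concentration required for complete inhibition of growth.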

Tests used:
Assay in all cases: NCI anticancer screen, dose series, 48 h
[1] = test system: SF-268 CNS
[2] = test system: HCT-116 colon
[3] = test system: OVCAR-5 ovarian
[4] = test system: SF-539 CNS
[5] = test system: RPMI-8226 leukemia
[6] = test system: SR leukemia
[7] = test system: 786-0 renal
[8] = test system: SW-620 colon
[9] = test system: NCI-H460 lung
[10] = test system: UO-31 renal

| SMILES | GI50 [1] | TGI [1] | GI50 [2] | TGI [2] | GI50 [3] | TGI [3] | GI50 [4] | TGI [4] | GI50 [5] | TGI [5] | GI50 [6] | TGI [6] | GI50 [7] | TGI [7] | GI50 [8] | TGI [8] | GI50 [9] | TGI [9] | GI50 [10] | TGI [10] |
| --- | --- | --- | --- | --- | --- | --- | --- | --- | --- | --- | --- | --- | --- | --- | --- | --- | --- | --- | --- | --- |
| COc1c(O)c2c3c(c1OC)-c1ccccc1CC3N(S(=O)(=O)c1ccc(C)cc1)CC2 (stereo not given) | 4.56 µM | > 50 µM | 1.9 µM | > 50 µM | 2.69 µM | > 50 µM | 1.15 µM | 3.16 µM | 1.51 µM | 4.25 µM | 1.36 µM | 7.09 µM | 4.89 µM | > 50 µM | 1.6 µM | > 50 µM | 1.58 µM | > 50 µM | 2.02 µM | > 50 µM |
| Oc1ccccc1C=Nc1nc(OCc2ccccc2)nc2[nH]ncc12 | 20.1 µM | 77.5 µM | 18.4 µM | 41.9 µM | 27.2 µM | 83.9 µM | 22.1 µM | 43 µM | 14.4 µM | 43.5 µM | 13.1 µM | 39.5 µM | 34.8 µM | > 100 µM | 27.4 µM | 76.1 µM | 24.4 µM | > 100 µM | 30.5 µM | > 100 µM |
